Results as given in patent publication US8492391B2, “Substituted 6-(2-hydroxybenzylamino)purine derivatives, their use as medicaments and compositions containing these derivatives” (Univerzita Palackeho V Olomouci, priority 2009, dated 2013).
Where two headings read alike, the source gives them in different places.

Columns and labels:
[1] = molecular target: T1, CDK2/cyclin E (Homo sapiens, UniProt P24941); assay: CDK2/cyclin E kinase inhibition assay; type: biochemical; settings: kinase inhibitory activity, 15 μM ATP, histone substrate
T1 construct: made in house; host or cells: Sf9 insect cells, baculovirus co-infection
Description: (§1) Selected compounds were tested for CDK1/cyclin B, CDK2/cyclin E, CDK5/p25, CDK7/cyclin H and CDK9/cyclin T inhibitory activity to determine the basic relationships between their structure and the inhibitory activity. Cdk/cyclin complexes were expressed in Sf9 cells co-infected with appropriate baculoviral construct. The cells were harvested 70 hours post infection in lysis buffer (50 mM Tris pH 7.4, 150 mM NaCl, 5 mM EDTA, 20 mM NaF, 1% Tween 20, protease inhibitors) for 30 min on ice and the soluble fraction was recovered by centrifugation at 14.000 g for […]. The protein extract was stored at −80° C. until use. The final point test system for kinase activity measurement was used to carry out experiments on the kinetics under linear conditions. […] ATP and tested compound in a final volume of 20 μl, all in reaction buffer: 50 mM Hepes pH 7.4, 10 mM MgCl2, 5 mM EGTA, 10 mM 2-glycerolphosphate, 1 mM NaF, 1 mM DTT and protease inhibitors. After 30 min, the incubations were stopped by adding 5% H3PO4 and then the proteins were separated by phosphocellulose binding. The measurement of kinase inhibition employed the digital imaging analyzer BAS 1800. The kinase activity was expressed as a percentage of maximum activity and the IC50 value was determined by graphic analysis. The kinase activity is expressed as a percentage of maximum activity (FIG. 1).

[2] = molecular target: T2, CDK9/cyclin T (Homo sapiens, UniProt P50750); assay: CDK9/cyclin T kinase inhibition assay; type: biochemical; settings: kinase inhibitory activity, 15 μM ATP, (YSPTSPS)3 peptide substrate
T2 construct: made in house; host or cells: Sf9 insect cells, baculovirus co-infection
Description: as §1

[3] = tested on: MCF7 (human breast adenocarcinoma); assay: Calcein AM cytotoxicity assay, MCF7; type: cell-based; settings: MCF7, read-out: Cytotoxic activity IC50 (μM) MCF7
Source text: (§2) Cytotoxicity of the compounds is the major property determining their anticancer effect in vivo. One of the parameters used, as the basis for cytotoxicity assays, is the metabolic activity of viable cells. For example, a microtiter assay, which uses the Calcein AM, is now widely used to quantitate cell proliferation and cytotoxicity. For instance, this assay is used in drug screening programs and in chemosensitivity testing. Because only metabolically active cells cleave Calcein AM, these assays detect viable cells exclusively. The quantity of cleaved Calcein AM corresponds to the number of vital cells in the culture. We have been using the following cell lines: MCF7 (human breast adenocarcinoma), K562 (human chronic myelogenous leukaemia), HOS (human osteogenic sarcoma), HeLa (human cervical carcinoma), HL 60 (human promyelocytic leukaemia), G 361 (human malignant melanoma), CEM (human lymphoblastoid leukaemia). All cell lines were grown in DMEM medium (Gibco BRL) supplemented with 10% (v/v) fetal bovine serum and L-glutamine and maintained at 37° C. in a humidified atmosphere with 5% CO2. For cytotoxicity assays, 10^4 cells were seeded into each well of 96 well plate, allowed to stabilize for at least 2 h and then tested compounds were added at various concentrations ranging from 100 to 0.1 μM in triplicates. Three days after drug addition Calcein AM solution (Molecular Probes) was added and let to enter the cells for 1 hour. Fluorescence of viable cells was quantified using Fluoroskan Ascent (Microsystems).

[4] = tested on: K562 (human chronic myelogenous leukaemia); assay: Calcein AM cytotoxicity assay, K562; type: cell-based; settings: read-out: Cytotoxic activity IC50 (μM) K562
Source text: as §2

[5] = tested on: HOS (human osteogenic sarcoma); assay: Calcein AM cytotoxicity assay, HOS; type: cell-based; settings: read-out: Cytotoxic activity IC50 (μM) HOS
Source text: as §2

[6] = tested on: p53; assay: p53-dependent transcription, β-galactosidase reporter in Arn8 cells; type: cell-based, human; set-up: key to p53 (effect): induction of p53 protein: ++: very strong; +: weak; −: no effect; settings: for p53 (effect): induction of p53 protein: Arn8 cells stable transfected with a β-galactosidase reporter gene; for p53 (peak concentration in μM): Arn8 cells, concentration inducing maximum of β-galactosidase activity
Source text: Protein p53, accumulated in nuclei upon treatment by the compounds, then leads to trans-activation of natural cell cycle inhibitor p21^WAF1, further blocking the cell cycle. […] This allows qualitative as well as quantitative measurement of CDK inhibitors-induced p53 transcriptional activity via β-galactosidase assay. Then, the effect will be verified in treated cells by immunoblotting of proteins expressed under the control of p53. β-galactosidase activity of human melanoma cell line Arn8 was determined as described. […] Alternatively, β-galactosidase activity was quantified by measuring fluorescence of methylumbelliferyl-β-D-galactopyranoside cleavage product. Cell lines established from the human breast carcinoma (MCF-7) and the human melanoma (Arn8) cell lines were cultured in Dubecco's Modified Eagle Medium (DMEM) supplemented with 10% foetal bovine serum.
Effects of prepared compounds on activation of p53 protein were analysed in human melanoma cell line Arn8. […] The total β-galactosidase activity in Arn8 cells was quantified using a fluorimetric assay.

T2 sequence (P50750 whole entry, species assumed): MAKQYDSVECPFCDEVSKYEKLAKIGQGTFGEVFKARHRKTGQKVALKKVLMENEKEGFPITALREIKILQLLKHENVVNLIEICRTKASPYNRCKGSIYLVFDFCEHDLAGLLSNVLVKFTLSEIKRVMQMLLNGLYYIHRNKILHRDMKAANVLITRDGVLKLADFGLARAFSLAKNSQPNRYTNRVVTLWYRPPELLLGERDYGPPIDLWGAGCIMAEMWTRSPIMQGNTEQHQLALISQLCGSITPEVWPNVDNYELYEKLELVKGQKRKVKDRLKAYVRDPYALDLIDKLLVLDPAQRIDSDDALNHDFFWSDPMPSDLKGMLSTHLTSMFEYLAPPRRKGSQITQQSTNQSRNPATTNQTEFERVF
T2 sequence (O60563 whole entry partner, species assumed): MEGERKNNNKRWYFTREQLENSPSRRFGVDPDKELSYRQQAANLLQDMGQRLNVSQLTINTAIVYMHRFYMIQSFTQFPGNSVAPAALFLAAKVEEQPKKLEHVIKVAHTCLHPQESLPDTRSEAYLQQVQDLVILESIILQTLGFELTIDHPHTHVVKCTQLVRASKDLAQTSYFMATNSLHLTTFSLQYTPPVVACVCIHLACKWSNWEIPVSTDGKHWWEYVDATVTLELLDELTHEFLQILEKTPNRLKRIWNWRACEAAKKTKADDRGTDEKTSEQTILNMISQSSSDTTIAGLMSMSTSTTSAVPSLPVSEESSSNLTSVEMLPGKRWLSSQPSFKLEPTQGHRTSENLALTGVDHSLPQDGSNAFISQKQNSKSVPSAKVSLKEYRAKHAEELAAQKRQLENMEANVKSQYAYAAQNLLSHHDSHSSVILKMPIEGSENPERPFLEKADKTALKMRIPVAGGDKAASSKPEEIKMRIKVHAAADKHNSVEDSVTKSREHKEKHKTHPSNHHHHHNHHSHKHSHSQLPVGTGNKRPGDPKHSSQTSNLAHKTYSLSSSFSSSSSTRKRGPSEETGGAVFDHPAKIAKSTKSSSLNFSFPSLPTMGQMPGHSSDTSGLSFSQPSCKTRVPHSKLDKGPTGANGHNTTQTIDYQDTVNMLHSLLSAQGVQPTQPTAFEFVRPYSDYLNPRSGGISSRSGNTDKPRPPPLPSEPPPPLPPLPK

SMILES	IC50 [1]	IC50 [2]	IC50 ([3]; Homo sapiens)	IC50 ([4]; Homo sapiens)	IC50 ([5]; Homo sapiens)	also measured
Cn1cnc2c(NCc3cc(Cl)ccc3O)nc(NC3CCCCC3N)nc21 (stereo not shown) [Compound 1]	0.29 µM	0.18 µM	43 µM	78 µM	65 µM	–
Cn1cnc2c(NCc3cc(Cl)ccc3O)nc(NC3CCC(N)CC3)nc21 (stereo not shown) [Compound 2]	0.27 µM	0.15 µM	46 µM	82 µM	64 µM	–
Cn1cnc2c(NCc3cc(F)ccc3O)nc(NC3CCCCC3N)nc21 (stereo not shown) [Compound 7]	0.26 µM	0.15 µM	35 µM	61 µM	47 µM	–
Cn1cnc2c(NCc3cc(F)ccc3O)nc(NC3CCC(N)CC3)nc21 (stereo not shown) [Compound 8]	0.25 µM	0.12 µM	39 µM	64 µM	50 µM	–
COc1cccc(CNc2nc(NC3CCCCC3N)nc3c2ncn3C)c1O (stereo not shown) [Compound 31]	0.26 µM	0.19 µM	36 µM	60 µM	45 µM	–
COc1cccc(CNc2nc(NC3CCC(N)CC3)nc3c2ncn3C)c1O (stereo not shown) [Compound 32]	0.22 µM	0.18 µM	–	–	–	–
CCn1cnc2c(NCc3cc(Cl)ccc3O)nc(NC3CCCCC3N)nc21 (stereo not shown) [Compound 47]	–	–	–	–	–	IC50 [3]: 32 µM; IC50 [4]: 55 µM; IC50 [5]: 41 µM
CCn1cnc2c(NCc3cc(Cl)ccc3O)nc(NC3CCC(N)CC3)nc21 (stereo not shown) [Compound 48]	0.14 µM	0.09 µM	–	–	–	–
CCn1cnc2c(NCc3cc(F)ccc3O)nc(NC3CCC(N)CC3)nc21 (stereo not shown) [Compound 51]	0.16 µM	0.1 µM	32 µM	52 µM	40 µM	–
CCn1cnc2c(NCc3cc(C)ccc3O)nc(NC3CCCCC3N)nc21 (stereo not shown) [Compound 59]	0.12 µM	0.05 µM	–	–	–	–
CC(C)n1cnc2c(NCc3cc(Cl)ccc3O)nc(NC3CCCCC3N)nc21 (stereo not shown) [Compound 76]	0.05 µM	0.03 µM	2.8 µM	9.9 µM	4.1 µM	–
CC(C)n1cnc2c(NCc3cc(Cl)ccc3O)nc(NC3CCC(N)CC3)nc21 (stereo not shown) [Compound 77]	0.04 µM	0.01 µM	–	–	–	–
CC(C)n1cnc2c(NCc3cc(Cl)ccc3O)nc(NC(C)C(C)(C)O)nc21 (stereo not shown) [Compound 82]	0.04 µM	0.01 µM	–	–	–	–
CC(C)n1cnc2c(NCc3cc(Cl)ccc3O)nc(NCCC(C)(C)O)nc21 [Compound 83]	0.02 µM	0.007 µM	–	–	–	–
CC(C)C(CO)Nc1nc(NCc2cccc(O)c2O)c2ncn(C(C)C)c2n1 (stereo not shown) [Compound 114]	–	–	–	–	–	p53 (effect): induction of p53 protein [6]: ++; p53 (peak concentration in μM) [6]: 12.0 µM
CC(C)n1cnc2c(NCc3cc(O)ccc3O)nc(NC3CCCCC3N)nc21 (stereo not shown) [Compound 121]	0.08 µM	0.07 µM	–	–	–	–
COc1cccc(CNc2nc(NCC(C)O)nc3c2ncn3C(C)C)c1O (stereo not shown) [Compound 127]	0.08 µM	0.06 µM	–	–	–	–
COc1cccc(CNc2nc(NC3CCC(O)CC3)nc3c2ncn3C(C)C)c1O (stereo not shown) [Compound 136]	0.05 µM	0.03 µM	–	–	–	–
COc1ccc(O)c(CNc2nc(NC3CCCCC3N)nc3c2ncn3C(C)C)c1 (stereo not shown) [Compound 143]	–	–	–	–	–	IC50 [3]: 5 µM; IC50 [4]: 13.1 µM
NC1CCCCC1Nc1nc(NCc2cc(Cl)ccc2O)c2ncn(Cc3ccccc3)c2n1 (stereo not shown) [Compound 179]	–	–	–	–	–	IC50 [3]: 8.7 µM; IC50 [4]: 19.5 µM; IC50 [5]: 10.2 µM
NC1CCCCC1Nc1nc(NCc2cc(F)ccc2O)c2ncn(Cc3ccccc3)c2n1 (stereo not shown) [Compound 186]	–	–	–	–	–	IC50 [3]: 6.9 µM; IC50 [4]: 15.4 µM; IC50 [5]: 9.3 µM
CC[C@H](CO)Nc1nc(NCc2ccccc2O)c2ncn(C(C)C)c2n1 [OCII, olomoucine II, reference compound]	–	–	–	–	–	p53 (effect): induction of p53 protein [6]: ++; p53 (peak concentration in μM) [6]: 12.0 µM
CCC(CC)n1cnc2c(NCc3cc(Cl)ccc3O)nc(NC3CCCCC3N)nc21 (stereo not shown) [compound 223]	0.08 µM	0.05 µM	–	–	–	IC50 [3]: 4.8 µM; IC50 [4]: 17.6 µM; IC50 [5]: 6.8 µM
CCC(CC)n1cnc2c(NCc3cc(F)ccc3O)nc(NC3CCCCC3N)nc21 (stereo not shown) [compound 226]	–	–	–	–	–	IC50 [3]: 4.1 µM; IC50 [4]: 12.4 µM; IC50 [5]: 4.3 µM
CCC(CC)n1cnc2c(NCc3cc(F)ccc3O)nc(NC3CCC(N)CC3)nc21 (stereo not shown) [compound 227]	0.06 µM	0.01 µM	–	–	–	–
CCC(CC)n1cnc2c(NCc3cccc(OC)c3O)nc(NC3CCCCC3N)nc21 (stereo not shown) [compound 238]	0.06 µM	0.04 µM	–	–	–	–

Continued, in another order:

IC50 [1]	IC50 [2]	SMILES	IC50 ([3]; Homo sapiens)	IC50 ([4]; Homo sapiens)	IC50 ([5]; Homo sapiens)	also measured
0.3 µM	0.12 µM	CCC(CO)Nc1nc(NCc2cc(Cl)ccc2O)c2ncn(C)c2n1 (stereo not shown) [Compound 3]	55 µM	84 µM	71 µM	–
0.25 µM	0.08 µM	CC(C)C(CO)Nc1nc(NCc2cc(Cl)ccc2O)c2ncn(C)c2n1 (stereo not shown) [Compound 4]	–	–	–	–
0.3 µM	0.17 µM	CCC(CO)Nc1nc(NCc2cc(F)ccc2O)c2ncn(C)c2n1 (stereo not shown) [Compound 9]	42 µM	67 µM	53 µM	–
0.27 µM	0.16 µM	CCC(CO)Nc1nc(NCc2cccc(OC)c2O)c2ncn(C)c2n1 (stereo not shown) [Compound 34]	–	–	–	–
0.13 µM	0.12 µM	CCC(CO)Nc1nc(NCc2cc(Cl)ccc2O)c2ncn(CC)c2n1 (stereo not shown) [Compound 50]	38 µM	58 µM	44 µM	–
0.11 µM	0.07 µM	CCn1cnc2c(NCc3cccc(OC)c3O)nc(NC3CCC(N)CC3)nc21 (stereo not shown) [Compound 70]	–	–	–	–
0.17 µM	0.09 µM	CCC(CO)Nc1nc(NCc2ccc(OC)cc2O)c2ncn(CC)c2n1 (stereo not shown) [Compound 73]	–	–	–	–
–	0.04 µM	CCC(CO)Nc1nc(NCc2cccc(C)c2O)c2ncn(C(C)C)c2n1 (stereo not shown) [Compound 101]	–	–	–	–
–	0.04 µM	CCC(CO)Nc1nc(NCc2cccc(O)c2O)c2ncn(C(C)C)c2n1 (stereo not shown) [Compound 113]	4.5 µM	7.8 µM	8.4 µM	–
0.09 µM	0.04 µM	CCC(CO)Nc1nc(NCc2ccc(OC)cc2O)c2ncn(C(C)C)c2n1 (stereo not shown) [Compound 139]	–	–	–	–
0.09 µM	0.06 µM	CCC(CO)Nc1nc(NCc2cc(Cl)ccc2O)c2ncn(C(CC)CC)c2n1 (stereo not shown) [compound 224]	5.5 µM	15.6 µM	7.2 µM	–
0.07 µM	0.04 µM	CCC(CO)Nc1nc(NCc2cc(F)ccc2O)c2ncn(C(CC)CC)c2n1 (stereo not shown) [compound 228]	4.6 µM	13.2 µM	6.8 µM	–
0.04 µM	0.02 µM	CCC(CO)Nc1nc(NCc2cccc(OC)c2O)c2ncn(C(CC)CC)c2n1 (stereo not shown) [compound 237]	–	–	–	–
0.1 µM	0.07 µM	CCC(CO)Nc1nc(NCc2cc(OC)ccc2O)c2ncn(C(CC)CC)c2n1 (stereo not shown) [compound 240]	–	–	–	–
